Reference: PMC9570017, “Unorthodox PCNA Binding by Chromatin Assembly Factor 1” (International Journal of Molecular Sciences, 2022)
Read-outs that look alike come from different tables or passages of the source.

How the values were obtained:
PCNA [1] = test: NMR 1H-15N BEST HSQC of 15N-p150L with PCNA; assay type: binding, human; conditions: 50 μM p150L, 400 μM PCNA monomer, 10 mM sodium phosphate pH 7.2, 10 mM NaCl, 293K
Description: NMR experiments were carried out on a 600 MHz Bruker Avance III spectrometer equipped with a 5 mm QCIP cryoprobe with Z gradients. All experiments were carried out at 293K. Two-dimensional ^1H-^15N BEST HSQC [60] experiments were carried out using the sequences downloaded from the NMRlib suite of pulse sequences. Selective shaped pulses were used to excite a ^1H sweep width of 4.5 ppm, centered at 8.75 ppm, with a recycle delay of 0.2 s. ^1H and ^15N sweep widths were set to 8417.509 Hz (14 ppm) and 1920.466 Hz (31.6 ppm) respectively, typically 240 t1 increments were acquired. NMR samples were prepared in 10 mM sodium phosphate buffer, pH 7.2, 10 mM NaCl, and 90% H2O/10% D2O. Uniformly ^15N labelled CAF-1 p150L and unlabeled PCNA were prepared in identical buffers and added together from stock samples. Final sample concentrations were at 50 μM for CAF-1 p150L and 400 μM PCNA monomer. NMR spectra were processed with NMRpipe, a multidimensional spectral system based on UNIX pipes.

PCNA [2] = test: Intrinsic tryptophan fluorescence quenching of PCNA by p150L; assay type: binding, human; conditions: 5 µM PCNA monomer + 20 µM p150L, excitation 280 nm, 10 mM sodium phosphate pH 7.2, 10 mM NaCl, 0.1 mM TCEP, room temperature
Description: Fluorescence experiments were performed on an Agilent Cary Eclipse fluorimeter at room temperature. Buffer conditions were identical for all protein components (10 mM sodium phosphate, pH 7.2, 10 mM NaCl, 0.1 mM TCEP). Samples were excited at A280nm with a 5 nm bandwidth and the emission spectra between 295 nm and 420 nm were collected. Measurements were made for 5 μM PCNA monomer (1 tryptophan residue), 20 μM CAF-1 p150L (no tryptophan and tyrosine residues), and a mixture containing 5 μM PCNA monomer and 20 μM CAF-1 p150L. Both samples were extensively dialyzed against the same buffer and prepared from stock samples to ensure identical conditions.

DNA = test: Co-purification with nucleic acid (DNA binding); conditions: purification of p150L; high salt washes combined with benzonase required to remove nucleic acid
From the text: An unusually long α-helix (119 amino acids) is predicted to end abruptly in the PIP RFF residues. The CAF-1 p150 PIP is surrounded by a red rectangle. To address this surprising prediction, CAF-1 p150 fragments that contained the predicted long α-helix including the PIP were expressed in E. coli, purified, and their biochemical and biophysical properties were characterized. This fragment of human p150 (Figure 5, residues 342–474) was expressed as a His-tagged fusion protein, hereafter referred to as CAF-1 p150L. […] Further treatment with benzonase and three sequential 1 M NaCl washes were required to remove the contamination.
S2. Expression and purification of p150L in Escherichia coli
A DNA fragment encoding human p150 residues 342-475 was cloned into the pET28a vector (kanamycin resistant) in-frame with a C-terminal 6X-histidine tag. For p150L ex-pression, this plasmid was transformed into Escherichia coli BL21(DE3) RIL cells (Strata-gene). Single colonies were inoculated and grown overnight to saturation at 37°C in 2X YT medium containing 50 µg/ml kanamycin. The next day, cells were diluted and grown to mid-exponential phase (A600nm = 0.6 - 0.8) at 37°C and protein expression was induced at 20°C with 0.5 mM isopropyl-β-D-thiogalactopyranoside (IPTG) for 16 h. […]

PCNA [3] = conditions: in vitro; ref [18]; cited from earlier work
From the text: CAF-1 is composed of three subunits, conserved from yeast to human. In humans, mice, and Xenopus, the three subunits of CAF-1 are p150 (CHAF1A), p60 (CHAF1B), and RbAp48 (RBBP4). p150 contains two regions that bind PCNA. The first is a motif located within the N-terminal domain of p150 that we previously referred to as the PCNA binding domain (PBD) (Figure 1A). […] I ... || Similarly, the CAF-1 PIP box sequence of Msh3, which is a part of the DNA mismatch repair machinery, is 19-[…]-41 and in accordance with the canonical sequence, the first PIP box residue corresponds to a glutamine, whereas in contrast, in the PIP box of CAF-1 this is replaced by a lysine at this position, thus making the binding mode of CAF-1 p150 non-canonical and unique in the case of human CAF-1 sequence 442-[…]-449 and mouse CAF-1 sequence 421-[…]-428. Previous research from our lab has also shown that substitution of the CAF-1 p150 lysine by a glutamine to ...

[4] = test system: replication-coupled chromatin assembly; conditions: ref [18], cited from earlier work
From the text: CAF-1 is composed of three subunits, conserved from yeast to human. In humans, mice, and Xenopus, the three subunits of CAF-1 are p150 (CHAF1A), p60 (CHAF1B), and RbAp48 (RBBP4). p150 contains two regions that bind PCNA. The first is a motif located within the N-terminal domain of p150 that we previously referred to as the PCNA binding domain (PBD) (Figure 1A). […] In order to probe this further, we determined the preliminary model of the structure of CAF-1 p150 PIP bound to PCNA based on a molecular replacement solution that could not be refined further. We report here that the CAF-1 PIP binds to PCNA in an unprecedented manner.

Row | Substance | NMR signal changes on mixing with PCNA (PCNA [1]) | NMR signal changes on mixing with PCNA (PCNA [1]; listed as p150L) | quenching of PCNA tryptophan fluorescence / binding (PCNA [2]) | quenching of PCNA tryptophan fluorescence / binding (PCNA [2]; listed as p150L) | DNA / nucleic acid binding (DNA) | binding to PCNA (PCNA [3]) | role or effect in chromatin assembly ([4]; listed as CAF-1 PIP) | role or effect in chromatin assembly [4]
1 | CAF-1 p150L: fragment of human p150 (residues 342–474) expressed as a His-tagged fusion protein | some of the well-resolved peaks corresponding to CAF-1 p150L disappeared or were significantly shifted | most of the p150L spectrum disappears | quenched a small portion of the tryptophan signal derived from PCNA | weak binding | co-purified with nucleic acid contamination |  |  | 
2 | KAEITRFF [PIP of p150] |  |  |  |  |  | shows weaker affinity for PCNA | preferentially inhibit nucleosome assembly over DNA synthesis | essential for chromatin assembly
